Assays:
[1] = tested on: Wistar rats; assay: Novel Object Recognition Task (subchronic study); assay type: in vivo, rat; conditions: p.o.; for Minimum effective dose: subchronic 7 days, Wistar rats
Description: Briefly, Wistar rats were acclimatized to the CNS-Laboratory-animal holding room for at least 7 days prior to the randomization, under standard housing conditions. Animals were handled and familiarized with the injection procedures during this period. Two days before the experimentation (acquisition trial, T1), rats were randomized in different treatment-groups based on their body weights namely, vehicle (Tween 80 (1%, v/v), Vitamin E TPGS (Speziol®, 10%, v/v) q.s. 100% v/v in milli-Q water, 2 ml/kg, p.o.), scopolamine (1 mg/kg, i.p.) and test compounds (Compound 1: ranging from 0.005 to 0.05 mg/kg, p.o. and compound A:ranging from 0.05 to 0.5 mg/kg, p.o.)
Vehicle or test compounds (Compounds 1 and A) were administered in a single-dose, subchronically for 7 days, and 1 h before the acquisition trial on day-8 in respective treatment-groups. In order to induce cognitive deficits, scopolamine (1 mg/kg) was injected 25 min before the acquisition trial (T1). Acquisition (T1) and Retention (T2) trials were separated by an intertrial interval of 30 min. In the first trial (acquisition trial, T1), the rats were subjected to arena with two identical objects for a period of 5 min and exploration time towards individual object was measured. In retention trial, one of the identical object was replaced with novel object.
In the time-delay induced amnesia paradigm, vehicle or test compounds (Compounds 1 and A) were administered once-daily for 7 days, and 1 h before the acquisition trial (T1) on day-8 in the respective treatment-groups. After this, a second, retention (T2) trial, was conducted on day-9. A 24 h inter-trial interval served to induce spontaneous decay of memory and resultant amnesia in this paradigm.
In the second trial (retention trial, T2), one of the objects presented in T1 was replaced by a novel object, and the rats were left to explore in the arena for 5 min. The time spent exploring the familiar (F) and the novel object (N) was recorded separately. All the animals underwent habituation session of 10 min duration 24 h prior to acquisition trial to get them acclimatized to the test arena. Both the trials (acquisition and retention) were of 5 min duration. The NOR task was performed in the square-open-field boxes (40 cm long×40 cm wide×40 cm high) made up of non-reflective PVC sheets with black surrounding walls and light gray floor. Colored plastic and glass bottles of different size, shapes and texture, served as object of exploration.
Object exploration was measured as the ‘time spent by the animal’ directing its nose at a distance 2 cm to the object or touching and exploring it. Time spent climbing on the object was not accounted as object exploration. In order to avoid the presence of olfactory trails, the test boxes and objects were always thoroughly cleaned between trials of individual animals.
Mean and standard error of the mean (S.E.M.) was calculated for the exploration time of each identical objects in T1, novel and familiar objects in T2 and discrimination index across the treatment groups. Exploration time within groups was compared with Student's paired t-test. Discrimination index was compared between groups by One-way ANOVA with Dunnett's post hoc test in comparison to the scopolamine-treated group or vehicle-treated group as per the paradigm. Discrimination index was compared between groups by unpaired t-test in comparison to the vehicle-treated group. p<0.05 was considered as significant. All statistical comparisons were performed using GraphPad Prism version 5.00 for Windows, GraphPad Software, San Diego Calif. USA.
The discrimination index (DI) was calculated based on explorations in T2 trial, using the formula.
Discrimination Index equals (time spent investigating novel object−time spent investigating familiar object)/(time spent investigating novel object+time spent investigating familiar object). […] All the experimental recordings were carried out by manual observation of animals by trained scientists. […]

[2] = tested on: Sprague Dawley rats; assay: Social Recognition Task (subchronic study); assay type: in vivo, rat; conditions: p.o.; for Minimum effective dose: subchronic 7 days, Sprague Dawley rats
Description: Briefly, Sprague Dawley rats were acclimatized to the CNS-Laboratory-animal holding room for at least 7 days prior to the randomization, under standard housing conditions. The animals were handled and familiarized with the injection procedures during this period. Two days before the experimentation (social interaction trial, SIT1), the rats were randomized in different treatment-groups based on their body weights namely, vehicle (Tween 80 (1%, v/v), Vitamin E TPGS (Speziol®, 10%, v/v) q.s. 100% v/v in milli-Q water; 2 ml/kg, p.o.), scopolamine (0.5 mg/kg, i.p.) and test compound (Compound 1:ranging from 0.05 to 0.50 mg/kg, p.o.).
Seven days before experiment, the vehicle or the test compound was administered to the adult rats once-daily and 1 h before the SIT1 on day-8 in respective treatment-groups. Scopolamine or vehicle was administered 20 min prior to the first social interaction (acquisition, SIT1) trial; scopolamine administration served to induced amnesia. After this treatment, the animals were subjected to the first social interaction (acquisition, SIT1) trial, which was followed by a second (retention, SIT2) trial, 30 min later.
In the case of time-delay induced amnesia paradigm, the vehicle or the test compounds (Compound 1) were administered to the adult rats once-daily for 7 days and 1 h before the SIT1 on day-8, in respective treatment-groups. After this treatment, the animals were subjected to a second (retention, SIT2) trial on day-9. The 24 h inter-trial interval served to induce spontaneous decay of memory and resultant amnesia.
Both the trials (acquisition and retention) were of 5 min duration. The social recognition task was performed in the home-cages made up of transparent polycarbonate. Juvenile rats of 3-4 weeks of age served as subjects for exploration to the adult rats. Adult rats were habituated to the home-cage (without juvenile) for 5 min just before SIT1.
Subject exploration (towards juvenile) was measured as the ‘time spent by the adult animal’ exploring the juvenile rat socially viz. sniffing, following, climbing over or going under or aggression. In order to avoid the confounding olfactory trails, the home-cage was individualized for each adult rat. During the second trial (retention trial, SIT2), adult rats were re-exposed to the same juvenile rat previously introduced earlier in the SIT1. The time of exploration in seconds was recorded for both sessions (SIT1 and SIT2).
Mean and standard error of mean (S.E.M) were determined for the exploration time of each social recognition trial (SIT1, SIT2) and recognition index across the treatment-groups. […]
The recognition index (RI) was calculated using the formula: Recognition index equals(time spent investigating juvenile rat in SIT2/time spent investigating juvenile rat in SIT1). […]

[3] = Time-delay induced amnesia (24 h)

| SMILES | Minimum effective dose ([1]; Scopolamine induced amnesia) [mg/kg] | Minimum effective dose [1, 3] [mg/kg] | discrimination index as compared to vehicle-treated group ([1]; 24 h time delay-induced amnesia, subchronic (7 day) 0.05 mg/Kg, FIG. 1A) | discrimination index as compared to scopolamine treated group ([1]; Scopolamine-induced amnesia, subchronic (7 day) 0.05 mg/Kg, FIG. 1B) | recognition index (RI) as compared to vehicle-treated group ([2]; 24 h time delay-induced amnesia, subchronic (7 day) 0.05 mg/Kg, FIG. 2A) | Minimum effective dose ([2]; Scopolamine induced amnesia) [mg/kg] | recognition index (RI) as compared to scopolamine treated group ([2]; Scopolamine-induced amnesia, subchronic (7 day) 0.05 mg/Kg, FIG. 2B) | Minimum effective dose [2, 3] [mg/kg] |
| --- | --- | --- | --- | --- | --- | --- | --- | --- |
| CCC(=O)c1c(-c2ccc(S(N)(=O)=O)cc2)c(C)c(-c2ccc(Cl)cc2)n1C [Compound A, 4-(5-(4-chlorophenyl)-1,4-dimethyl-2-propionyl-1H-pyrrol-3-yl)benzenesulfonamide, reference compound] | >0.5 | 0.15 | – | – | – | – | – | – |
| Cc1c(-c2ccc(S(N)(=O)=O)cc2)c(C(=O)CC2CC2)n(C)c1-c1ccc(Cl)cc1 [Compound 1, 4-(5-(4-chlorophenyl)-2-(2-cyclopropylacetyl)-1,4-dimethyl-1H-pyrrol-3-yl)benzenesulfonamide] | 0.015 | 0.015 | significantly increased | significantly increased | significantly decreased | 0.015 | significantly decreased | 0.05 |
